From patent US10209236B2, “Cell analyzer system, cell analyzer program, and cell analyzing method” (Sony Corporation, priority 2012, dated 2019)

What was measured:
Type in all cases: cell-based
[1] = tested on: neuron cells (iPS Academia Japan) that were differentiation of iPS cells; assay: Fluorescence intensity vibration (Ca2+ imaging with Fluo8) of neuron cells, FFT power spectra; details: for spontaneous membrane potential vibration of the neural cells: confirmed by the vibration characteristics of the fluorescence intensity vibration
Description: Effects of GABA and L-Glu on the neuron cells and the neuron cell network were evaluated using the fluorescence intensity vibration. The GABA is a physiological active substance that gives inhibitory stimulation to the neuron cells. The L-Glu gives exciting stimulation.
Fluo8 (fluorescent labeling) used in Ca^2+ imaging was entrained in the neuron cells (iPS Academia Japan) that were differentiation of iPS cells. The GABA or the L-Glu was administered to incubation liquid. Fluorescence of the Fluo8 generated from each neuron cell was image-captured at 2 flame/sec for 1 minute to provide each cell image.
The fluorescence intensity vibration (vibration information) was extracted from each cell image, taking the image range including one neuron cell as the extraction range. FIG. 9(a) is a graph of fluorescence intensity vibration extracted from the cell image of the neuron cells to which the GABA is administered. FIG. 9(b) is a graph of fluorescence intensity vibration extracted from the cell image of the neuron cells to which the L-Glu is administered.
Then, the FFT analysis was applied to fluorescence intensity vibration to calculate power spectra (vibration characteristics). FIG. 10(a) is a graph of power spectrum calculated from the fluorescence intensity vibration ([…]) of the neuron cells to which the GABA is administered. FIG. 10(b) is a graph of power spectrum calculated from the fluorescence intensity vibration ([…]) of the neuron cells to which the L-Glu is administered.

[2] = tested on: neuron cells (iPS Academia Japan) that were differentiation of iPS cells; assay: Motion vibration of neuron cells, FFT power spectra; details: for spontaneous membrane potential vibration of the neural cells: confirmed by the vibration characteristics of the motion vibration
Description: Effects of GABA and L-Glu administered on the neuron cells were evaluated. The GABA or the L-Glu was administered to incubation liquid of the neuron cells (iPS Academia Japan) that were differentiation of iPS cells. Each neuron cell was image-captured at 2 flame/sec for 1 minute to provide each cell image.
In each cell image, the motion vibration was extracted using the image range including one neuron cell as the extraction range. FIG. 23(a) is a graph of the motion vibration extracted from the cell image of the neural cells to which the GABA is administrated. FIG. 23(b) is a graph of the motion vibration extracted from the cell image of the neural cells to which the L-Glu is administrated.
Then, the FFT analysis was applied to the motion vibration to calculate power spectra. FIG. 24(a) is a graph of power spectrum calculated from the motion vibration (FIG. 23(a)) of the neuron cells to which the GABA is administered. FIG. 24(b) is a graph of power spectrum calculated from the motion vibration (FIG. 23(b)) of the neuron cells to which the L-Glu is administered.

[3] = tested on: neural cells derived from iPS cells where a sufficient neural cell network was formed; assay: Evaluation of cytotoxicity by motion vibration; details: whole image as extraction range; 5 μm of memantine with 500 nM or 5000 nM of Aβ peptide; incubated for five days; FIG. 28
Description: Effects of a cytotoxic substance administered on the neuron cells were evaluated using the motion vibration of the cells. As a cytotoxic model, the cytotoxicity of Aβ peptide considered as a cause of the Alzheimer disease and a neuroprotective action of an anti-alzheimer's disease drug, i.e., memantine were evaluated. As the cytotoxicity of Aβ peptide, there are a synapse failure by acting on synapses and a cell failure entrained in the cells. The cell group of the neural cells derived from iPS cells where a sufficient neural cell network was formed was prepared. A predetermined amount of Aβ peptide or Aβ peptide and memantine was administered to each cell group to incubate for five days. After five days, the cell image of each cell group was captured to extract the motion vibration from the whole image and each cell as the extraction range and the vibration characteristics were calculated. FIGS. 27(a) to (f) are graphs of the vibration characteristics of the motion vibration extracted from the extraction range including the whole image. […] FIG. 28 is a graph of average values of the vibration power extracted from the motion vibration in each cell group shown in FIGS. 27(a) to (e) in each pixel included in the extraction range. […] On the other hand, when memantine was administered, the vibration power is not decreased. […]

[4] = extraction range including one neuron cell, compared with neuron cells to which the L-Glu is administered, FIGS. 10(a) and 10(b)
[5] = extraction range including one neuron cell, compared with neuron cells to which the L-Glu is administered, FIGS. 24(a) and 24(b)

Row | Structure (SMILES) | spontaneous membrane potential vibration of the neural cells [1] | amplitude of the fluorescence intensity vibration [1, 4] | frequency of the fluorescence intensity vibration [1, 4] | spontaneous membrane potential vibration of the neural cells [2] | amplitude of the motion vibration [2, 5] | frequency of the motion vibration [2, 5] | vibration power of the cell group (motion vibration, average values in each pixel) [3]
1 | NCCCC(=O)O [GABA] | changed | greater | lower | changed | greater | lower | –
2 | CC12CC3CC(C)(C1)CC(N)(C3)C2 [memantine] | – | – | – | – | – | – | not decreased
3 | N[C@@H](CCC(=O)O)C(=O)O [L-Glu] | changed | – | – | changed | – | – | –
